According to publication PMC10916382, “Repurposing screen identifies novel candidates for broad-spectrum coronavirus antivirals and druggable host targets” (Antimicrobial Agents and Chemotherapy, 2024):
Read-outs that look alike come from different tables or passages of the source.

Legend:
HCoV-229E = assay: microbe, parasite or virus in culture; assay type: cell-based, Homo sapiens sapiens
Huh-7.5/F-Luc cells = details: for CC50 (µM): maximum tested dose 5 µM
SARS-CoV-2 [1] = tested on: SARS-CoV-2
SARS-CoV-2 [2] = details: Calu-3 cells; for outcome against confirmation criteria of the SARS-CoV-2 counter-screen (<50% infected cell, >75% total cells): single dose of 5 µM
in vitro [3] = details: human
in vitro [4] = details: for viability: Anti-SARS-CoV-2 screening on Calu-3 cells: viability [% of control], Calu-3 cells
[5] = Human coronavirus 229E, Huh7.5, read-out: IC50 (µM), HCoV 229E

SMILES: COc1cc(F)ccc1-c1cc(Nc2cc(CS(C)(=N)=O)ccn2)ncc1F (single isomer, unassigned; (+)) [(+)-BAY-1251152, reference compound]
- IC50 (HCoV-229E; HCoV 229E infection, dose series, max. dose 5 µM, read-out: IC50): 0.13 µM
- CC50 (µM) (Huh-7.5/F-Luc cells; Huh-7.5 cells, dose series): greater than maximum tested dose
- % cell viability at max. dose [5 µM] (Huh-7.5/F-Luc cells; at max. dose 5 µM): 115.26%
- virus load in the culture fluid (SARS-CoV-2 [1]): reduced virus load
- Anti-SARS-CoV-2 screening on Calu-3 cells: viability [% of control] (SARS-CoV-2 [2]): 100.11 % of control
- Anti-SARS-CoV-2 screening on Calu-3 cells: intracellular SARS-CoV-2 infection measured via immunofluorescence imaging [% of control] (SARS-CoV-2 [2]): 51.46 % of control
- outcome against confirmation criteria of the SARS-CoV-2 counter-screen (<50% infected cell, >75% total cells) (SARS-CoV-2 [2]): did not meet our stringent confirmation criteria

SMILES: OC1CCN(CCCN2c3ccccc3Sc3ccc(C(F)(F)F)cc32)C1 (centres unmarked) [RFM-010-589-5]
- viability at 5 µM (in vitro [3]): 146%
- IC50 (HCoV-229E; [5]): 1.4 µM
- viability (in vitro [4]): 110%
- CC50 (µM) (Huh-7.5/F-Luc cells; Huh-7.5/F-Luc cells): greater than maximum tested dose
- Anti-SARS-CoV-2 screening on Calu-3 cells: intracellular SARS-CoV-2 infection measured via immunofluorescence imaging [% of control] (SARS-CoV-2 [2]): 102.40 % of control

SMILES: COc1cc2c(cc1NS(=O)(=O)c1ccc(-c3ccc(Cl)s3)cc1)CCN(C)CC2 [RFM-010-759-5]
- viability at 5 µM (in vitro [3]): 133%
- IC50 (HCoV-229E; [5]): 1.73 µM
- viability (in vitro [4]): 92.9%
- CC50 (µM) (Huh-7.5/F-Luc cells; Huh-7.5/F-Luc cells): greater than maximum tested dose
- Anti-SARS-CoV-2 screening on Calu-3 cells: intracellular SARS-CoV-2 infection measured via immunofluorescence imaging [% of control] (SARS-CoV-2 [2]): 107.82 % of control

SMILES: Oc1ccc(Nc2ccnc3cc(Cl)ccc23)cc1CN1CCCC1 [RFM-010-841-8]
- viability at 5 µM (in vitro [3]): 165%
- IC50 (HCoV-229E; [5]): 1.41 µM
- viability (in vitro [4]): 109%
- CC50 (µM) (Huh-7.5/F-Luc cells; Huh-7.5/F-Luc cells): greater than maximum tested dose
- Anti-SARS-CoV-2 screening on Calu-3 cells: intracellular SARS-CoV-2 infection measured via immunofluorescence imaging [% of control] (SARS-CoV-2 [2]): 102.22 % of control

SMILES: CN(C)CCOC(c1ccccc1)c1ccc(Br)cc1 (centres unmarked) [RFM-010-846-3]
- viability at 5 µM (in vitro [3]): 157%
- IC50 (HCoV-229E; [5]): 2.14 µM
- viability (in vitro [4]): 92.2%
- CC50 (µM) (Huh-7.5/F-Luc cells; Huh-7.5/F-Luc cells): greater than maximum tested dose
- Anti-SARS-CoV-2 screening on Calu-3 cells: intracellular SARS-CoV-2 infection measured via immunofluorescence imaging [% of control] (SARS-CoV-2 [2]): 102.09 % of control

SMILES: CC(C)NCC(O)COc1ccc(CC(=O)OCCC23CC4CC(CC(C4)C2)C3)cc1 (centres unmarked) [RFM-010-929-5]
- viability at 5 µM (in vitro [3]): 122%
- IC50 (HCoV-229E; [5]): 1.76 µM
- viability (in vitro [4]): 90.2%
- CC50 (µM) (Huh-7.5/F-Luc cells; Huh-7.5/F-Luc cells): greater than maximum tested dose
- Anti-SARS-CoV-2 screening on Calu-3 cells: intracellular SARS-CoV-2 infection measured via immunofluorescence imaging [% of control] (SARS-CoV-2 [2]): 113.56 % of control

SMILES: COc1cccc(CCc2ccccc2OCC[C@@H]2C[C@@H](O)CN2C)c1 [RFM-011-187-5]
- viability at 5 µM (in vitro [3]): 131%
- IC50 (HCoV-229E; [5]): 2.43 µM
- viability (in vitro [4]): 102%
- CC50 (µM) (Huh-7.5/F-Luc cells; Huh-7.5/F-Luc cells): greater than maximum tested dose
- Anti-SARS-CoV-2 screening on Calu-3 cells: intracellular SARS-CoV-2 infection measured via immunofluorescence imaging [% of control] (SARS-CoV-2 [2]): 105.26 % of control

SMILES: Cc1cc(OCCN(C)C)c(C(C)C)cc1OC(=O)CC(C)(C)SN=O [RFM-011-454-5]
- viability at 5 µM (in vitro [3]): 118%
- IC50 (HCoV-229E; [5]): 2.37 µM
- viability (in vitro [4]): 88.9%
- CC50 (µM) (Huh-7.5/F-Luc cells; Huh-7.5/F-Luc cells): greater than maximum tested dose
- Anti-SARS-CoV-2 screening on Calu-3 cells: intracellular SARS-CoV-2 infection measured via immunofluorescence imaging [% of control] (SARS-CoV-2 [2]): 101.17 % of control

SMILES: Oc1ccc2c(c1)OC[C@@H](c1ccccc1)[C@H]2c1ccc(OCCN2CCCC2)cc1 [RFM-011-457-8]
- viability at 5 µM (in vitro [3]): 144%
- IC50 (HCoV-229E; [5]): 1.5 µM
- viability (in vitro [4]): 101%
- CC50 (µM) (Huh-7.5/F-Luc cells; Huh-7.5/F-Luc cells): greater than maximum tested dose
- Anti-SARS-CoV-2 screening on Calu-3 cells: intracellular SARS-CoV-2 infection measured via immunofluorescence imaging [% of control] (SARS-CoV-2 [2]): 113.89 % of control

SMILES: CCN1[C@@H]2CC[C@H]1C[C@@H](OC(c1ccccc1)c1ccccc1)C2 [RFM-011-925-5]
- viability at 5 µM (in vitro [3]): 136%
- IC50 (HCoV-229E; [5]): 1.62 µM
- viability (in vitro [4]): 117%
- CC50 (µM) (Huh-7.5/F-Luc cells; Huh-7.5/F-Luc cells): greater than maximum tested dose
- Anti-SARS-CoV-2 screening on Calu-3 cells: intracellular SARS-CoV-2 infection measured via immunofluorescence imaging [% of control] (SARS-CoV-2 [2]): 108.20 % of control

SMILES: Cc1c(NCCN2CCCC2)cc(C(=O)C(C)(C)C)cc1N1CCN(c2ncnc3[nH]nc(Br)c23)CC1 [RFM-011-974-4]
- viability at 5 µM (in vitro [3]): 124%
- IC50 (HCoV-229E; [5]): 1.4 µM
- viability (in vitro [4]): 104%
- CC50 (µM) (Huh-7.5/F-Luc cells; Huh-7.5/F-Luc cells): greater than maximum tested dose
- Anti-SARS-CoV-2 screening on Calu-3 cells: intracellular SARS-CoV-2 infection measured via immunofluorescence imaging [% of control] (SARS-CoV-2 [2]): 103.98 % of control

SMILES: COCCN1CCC(N(Cc2ccc(-c3ccc(C(F)(F)F)cc3)cc2)C(=O)c2ccco2)CC1 [RFM-012-120-0]
- viability at 5 µM (in vitro [3]): 130%
- IC50 (HCoV-229E; [5]): 1.61 µM
- viability (in vitro [4]): 94.4%
- CC50 (µM) (Huh-7.5/F-Luc cells; Huh-7.5/F-Luc cells): greater than maximum tested dose
- Anti-SARS-CoV-2 screening on Calu-3 cells: intracellular SARS-CoV-2 infection measured via immunofluorescence imaging [% of control] (SARS-CoV-2 [2]): 87.75 % of control

SMILES: CCCN(CCC)C(=O)C(Cc1ccc(OCCCN2CCN(C)CC2)cc1)NC(=O)c1cccc(Cl)c1 (centres unmarked) [RFM-012-155-1]
- viability at 5 µM (in vitro [3]): 126%
- IC50 (HCoV-229E; [5]): 3.67 µM
- viability (in vitro [4]): 104%
- CC50 (µM) (Huh-7.5/F-Luc cells; Huh-7.5/F-Luc cells): greater than maximum tested dose
- Anti-SARS-CoV-2 screening on Calu-3 cells: intracellular SARS-CoV-2 infection measured via immunofluorescence imaging [% of control] (SARS-CoV-2 [2]): 95.12 % of control

SMILES: CCCN(CCC)C(=O)C(Cc1ccc(OCCCN2CCN(C)CC2)cc1)NC(=O)c1ccc(Br)cc1 (centres unmarked) [RFM-012-167-5]
- viability at 5 µM (in vitro [3]): 141%
- IC50 (HCoV-229E; [5]): 2.36 µM
- viability (in vitro [4]): 99.3%
- CC50 (µM) (Huh-7.5/F-Luc cells; Huh-7.5/F-Luc cells): greater than maximum tested dose
- Anti-SARS-CoV-2 screening on Calu-3 cells: intracellular SARS-CoV-2 infection measured via immunofluorescence imaging [% of control] (SARS-CoV-2 [2]): 114.35 % of control

SMILES: CN(C)CC(O)COc1ccccc1C1CC2CCC1C2 (centres unmarked) [RFM-012-243-0]
- viability at 5 µM (in vitro [3]): 142%
- IC50 (HCoV-229E; [5]): 1.84 µM
- viability (in vitro [4]): 95.3%
- CC50 (µM) (Huh-7.5/F-Luc cells; Huh-7.5/F-Luc cells): greater than maximum tested dose
- Anti-SARS-CoV-2 screening on Calu-3 cells: intracellular SARS-CoV-2 infection measured via immunofluorescence imaging [% of control] (SARS-CoV-2 [2]): 114.97 % of control

SMILES: CCc1ccc2c(c1)N(CC(C)CN(C)C)c1ccccc1S2 (centres unmarked) [RFM-012-636-3]
- viability at 5 µM (in vitro [3]): 138%
- IC50 (HCoV-229E; [5]): 1.71 µM
- viability at 48 h, 5 µM (in vitro [4]): 108%
- CC50 (µM) (Huh-7.5/F-Luc cells; Huh-7.5/F-Luc cells): greater than maximum tested dose
- Anti-SARS-CoV-2 screening on Calu-3 cells: intracellular SARS-CoV-2 infection measured via immunofluorescence imaging [% of control] (SARS-CoV-2 [2]): 133.66 % of control

SMILES: Cc1nc(Nc2ncc(N3CCN(C)[C@H](C)C3)c(Nc3cc(C)n(C)n3)n2)cc(C2CC2)c1F [RFM-012-989-5]
- viability at 5 µM (in vitro [3]): 125%
- IC50 (HCoV-229E; [5]): 1.97 µM
- viability (in vitro [4]): 114%
- CC50 (µM) (Huh-7.5/F-Luc cells; Huh-7.5/F-Luc cells): greater than maximum tested dose
- Anti-SARS-CoV-2 screening on Calu-3 cells: intracellular SARS-CoV-2 infection measured via immunofluorescence imaging [% of control] (SARS-CoV-2 [2]): 114.63 % of control

SMILES: Cc1ccc([C@@H](CCNCC2CCCCC2)[C@@H]2CCOC(C)(C)C2)cc1F [RFM-013-052-9]
- viability at 5 µM (in vitro [3]): 119%
- IC50 (HCoV-229E; [5]): 1.8 µM
- viability (in vitro [4]): 102%
- CC50 (µM) (Huh-7.5/F-Luc cells; Huh-7.5/F-Luc cells): greater than maximum tested dose
- Anti-SARS-CoV-2 screening on Calu-3 cells: intracellular SARS-CoV-2 infection measured via immunofluorescence imaging [% of control] (SARS-CoV-2 [2]): 121.52 % of control

SMILES: COCCN1CCN(Cc2ccc(-c3n[nH]c4c3C(=O)c3c(NC(=O)NN5CCOCC5)cccc3-4)cc2)CC1 [RGB-286638, reference compound]
- IC50 (HCoV-229E; Human coronavirus 229E, Huh7.5): 0.12 µM
- viability (in vitro [4]): 19%
- CC50 (µM) (Huh-7.5/F-Luc cells; Huh-7.5 cells, dose series): greater than maximum tested dose
- virus load in the culture fluid (SARS-CoV-2 [1]; Calu-3 cells, screening dose 5 µM, 48 hours post-inoculation): reduced virus load
- Anti-SARS-CoV-2 screening on Calu-3 cells: intracellular SARS-CoV-2 infection measured via immunofluorescence imaging [% of control] (SARS-CoV-2 [2]): 123.82 % of control
- outcome against confirmation criteria of the SARS-CoV-2 counter-screen (<50% infected cell, >75% total cells) (SARS-CoV-2 [2]): did not meet our stringent confirmation criteria
